According to ChEMBL document CHEMBL1921688, “Alkaloids from Chelidonium majus and their inhibitory effects on LPS-induced NO production in RAW264.7 cells” (Bioorg Med Chem Lett, 2011):
Activity calls are given as the source filed them. The rule behind the calls is not given here.

Key:
[1] = system: RAW264.7; assay: Antiinflammatory activity in mouse RAW264.7 cells assessed as inhibition of LPS-induced nitric oxide production after 24 hrs by griess assay; assay type: functional, cell-based; conditions: RAW264.7, 24 h
[2] = system: RAW264.7; assay: Cytotoxicity against mouse RAW264.7 cells assessed as cell viability at 50 uM after 24 hrs by MTT assay; assay type: cell-based; conditions: raw264.7, 24 h
[3] = system: RAW264.7; assay: Antiinflammatory activity in mouse RAW264.7 cells assessed as inhibition of LPS-induced iNOS production after 18 hrs by Western blot analysis; assay type: functional, cell-based
[4] = system: RAW264.7; assay: Antiinflammatory activity in mouse RAW264.7 cells assessed as inhibition of LPS-induced iNOS production at 1 uM after 18 hrs by Western blot analysis; assay type: functional, cell-based
[5] = system: RAW264.7; assay: Antiinflammatory activity in mouse RAW264.7 cells assessed as inhibition of LPS-induced COX2 production after 18 hrs by Western blot analysis; assay type: functional, cell-based
[6] = system: RAW264.7; assay: Antiinflammatory activity in mouse RAW264.7 cells assessed as inhibition of LPS-induced COX2 production at 3 uM after 18 hrs by Western blot analysis; assay type: functional, cell-based
[7] = system: RAW264.7; assay: Antiinflammatory activity in mouse RAW264.7 cells assessed as inhibition of LPS-induced iNOS promoter activity; assay type: functional, cell-based
[8] = system: RAW264.7; assay: Antiinflammatory activity in mouse RAW264.7 cells assessed as inhibition of LPS-induced COX2 promoter activity; assay type: functional, cell-based
[9] = system: RAW264.7; assay: Antiinflammatory activity in mouse RAW264.7 cells assessed as inhibition of LPS-induced iNOS production at 3 uM after 18 hrs by Western blot analysis; assay type: functional, cell-based

| IC50 [1] [µM] | Compound | Activity [2] | inhibition [3] | inhibition [4] | inhibition [5] | inhibition [6] | inhibition [7] | inhibition [8] | inhibition [9] |
| --- | --- | --- | --- | --- | --- | --- | --- | --- | --- |
| > 50 | COC(=O)CC1c2c(ccc3c2OCO3)-c2ccc3cc4c(cc3c2N1C)OCO4 (stereo not given) | Non-toxic | – | – | – | – | – | – | – |
| > 30 | COc1ccc2cc3[n+](cc2c1OC)CCc1cc2c(cc1-3)OCO2 [BERBERINE] | Non-toxic | – | – | – | – | – | – | – |
| 16.5 | O[C@@H]1Cc2cc3c(cc2[C@@H]2NCc4c(ccc5c4OCO5)[C@H]12)OCO3 [NORCHELIDONINE] | Non-toxic | – | – | – | – | – | – | – |
| – | CN1CCc2cc3c(cc2C(=O)Cc2ccc4c(c2C1)OCO4)OCO3 [PROTOPINE] | Non-toxic | – | – | – | – | – | – | – |
| > 50 | c1cc2c(c3c1C[C@H]1c4cc5c(cc4CCN1C3)OCO5)OCO2 [STYLOPINE] | Non-toxic | – | – | – | – | – | – | – |

| Compound | IC50 [1] [µM] | Activity [2] | inhibition [3] | inhibition [4] | inhibition [5] | inhibition [6] | inhibition [7] | inhibition [8] | inhibition [9] |
| --- | --- | --- | --- | --- | --- | --- | --- | --- | --- |
| CN1c2c(ccc3cc4c(cc23)OCO4)-c2ccc3c(c2C1O)OCO3 (stereo not given) | 4.5 | Non-toxic | Dose-dependent effect | Active | Dose-dependent effect | Active | Active | Active | – |
| CN1Cc2c(ccc3c2OCO3)[C@@H]2[C@H]1c1cc3c(cc1C[C@@H]2O)OCO3 [CHELIDONINE] | 7.3 | Non-toxic | Dose-dependent effect | – | Dose-dependent effect | Active | Active | Active | Active |
